In patent EP1233943B1, “IONIZABLE INDOLINONE DERIVATIVES AND THEIR USE AS PTK LIGANDS” (Sugen, Inc., priority 1999, dated 2001):
In brackets after ≈: the same amount, converted by molar mass. Read-outs that look alike come from different tables or passages of the source.

Experiments:
[1] = test system: EpH4-VEGF1 (murine epithelial); experiment: in vivo; settings: 75 mg/kg/d IP daily in DMSO; day 18; BALB/c nu/nu mice
Protocol: (§1) In most experiments, compound was administered daily.
(§2) Tumor growth was measured using venier calipers.

[2] = in vivo; settings: mouse, in vivo, ip, 75 mg/kg/day
Protocol: as §1, §2

[3] = test system: A431 (human epidermal); experiment: Subcutaneous xenograft model in athymic mice, A431; format: in vivo; settings: 100 mg/kg/d IP daily in DMSO; day 24; BALB/c nu/nu mice
Protocol: as §1, §2

[4] = Subcutaneous xenograft model in athymic mice, A431; format: in vivo, human; settings: mouse, in vivo, 100 mg/kg/day; 100 mg/kg/d IP daily in DMSO
Protocol: as §1, §2

[5] = test system: SF767T (human glioma); settings: 75 mg/kg/d IP daily in DMSO; day 21; BALB/c nu/nu mice
Protocol: (§3) SF763T, SF767T, and SKOV3TP5 were derived by implanting the parental cells SC into BALB/c nu/nu mice.
(§4) For the SF763T and SF767T cell lines, two to five mL of appropriate medium was added to the slurry and the tumor pieces were further mechanically teased apart. […] Medium was changed every two to three days. After three to five passages, the antibiotic supplements were removed and the cells maintained in antibiotic-free medium.
as §1, §2

[6] = test system: SF763T (human glioma); settings: 75 mg/kg/d IP daily in DMSO; day 21; BALB/c nu/nu mice
Protocol: as §3, §4, §1, §2

[7] = test system: SKOV3TP5 (human ovarian); settings: 75 mg/kg/d IP daily in DMSO; day 25; BALB/c nu/nu mice
Protocol: as §3
For the SKOV3TP5 cells, fragments of resected tumors were injected SC into mice for in vivo passaging. This procedure was repeated five times before cells were returned to culture as described above.
as §1, §2

[8] = in vivo; settings: mouse, in vivo, ip, 75 mg/kg/day; remark: listed apart in the source
Protocol: as §1, §2

[9] = test system: A375 (human melanoma); experiment: in vivo; settings: 75 mg/kg/d IP in DMSO, dosed 3x/week; day 29; BALB/c nu/nu mice
Protocol: as §1, §2

[10] = test system: C6 (rat glioma)
Protocol: (§5) C6 cells were cultured in Ham's F-10 supplemented with 5% FBS and 2mM L-glutamine. […] All cell cultures were maintained at 37°C in a humidified atmosphere of 5-10% CO2.
(§6) Tumor cell lines (0.6 - 10 x 10^6 cells/animal; n = 8-20 animals/group) were implanted SC in the hindflank region of 8-12 week old BALB/c nu/nu female mice.
(§7) Tumor growth was measured using venier calipers. Tumor volumes were calculated as the product of length x width x height. Statistical analysis was carried out using Student's t-test.
(§8) C6 cells were implanted SC into athymic mice on day zero. […] On Day 16, all Group 3 animals were humanely sacrificed due to tumor burden (mean tumor diameter approximately 1300 mm^3), and the growth of tumors in Groups 1 and 2 was monitored until the mean tumor burden of each group reached 1300 mm^3.
(§9) Beginning one day post-implantation, compound (200 mg/kg/day in solution in a Labrasol®-containing vehicle) was administered to mice PO. Tumor growth was measured using venier calipers and tumor volumes were calculated as the product of length x width x height.

[11] = in vivo
Protocol: as §5, §6, §7, §8, §9

[12] = physchem
Protocol: The solution was filtered, appropriate dilutions made and the concentration of the compound in the supernatant was analyzed by a reverse phase HPLC method.

[13] = Oral bioavailability of formulations in beagle dogs; format: in vivo; settings: higher doses in fasted conditions
Protocol: The formulation described below enhance the oral bioaviability of COMPOUND IV in beagle dogs, a preclinical absorption model.
Both formulations contain 50 mg/gm of Pluronic F-68. The formulation at 50 mg/gm of COMPOUND IV contains 900 mgs of sesame oil and the one that contains 250 mg/gm of COMPOUND IV contains 700 mgs of sesame oil.
AUC refers to the area under the curve of the plasma concentration time curve and represents oral bioavilability (BA). Higher AUC indicates higher BA.

In the case of `Cc1[nH]c(C=C2C(=O)Nc3ccccc32)c(C)c1CCC(=O)O` [Example 1, 3-[2,4-dimethyl-5-(2-oxo-1,2-dihydro-indol-3-ylidenemethyl)-1H-pyrrol-3-yl]-propionic acid], the “% Inhibition @ (day)” value [1] is reported as 34 (18) %, the mortality [2] is reported as 0% and the “% Inhibition @ (day)” value [3] is reported as 84 (24) %. For the same compound, the mortality [4] was 12.5%, the “% Inhibition @ (day)” value [5] was 46 (21) % and the “% Inhibition @ (day)” value [6] was 48 (21) %. The “% Inhibition @ (day)” value [7] was 9 (25) %, the mortality [8] was 0% and the “% Inhibition @ (day)” value [9] was 56(29) %. For the same compound, the “% Inhibition @ (day)” value ([10]; 100 mg/kg/d IP daily in DMSO, day 18, BALB/c nu/nu mice) was 65 (18) %, the “% Inhibition (at day)” value ([10]; IP 25 mg/kg Daily X 5, day 18) was 1(18) % and the “% Inhibition (at day)” value ([10]; IP 50 mg/kg Daily X 5, day 18) was 68 (18) %. The “% Inhibition (at day)” value ([10]; IP 50 mg/kg Daily, day 18) was 27 (18) %, the “% Inhibition (at day)” value ([10]; IP 50 mg/kg Three times weekly, day 18) was 25 (18) % and the “% Inhibition (at day)” value ([10]; IP 50 mg/kg Twice weekly, day 19) was 36 (19) %. The “% Inhibition (at day)” value ([10]; IP 75 mg/kg Daily X 5, day 18) was 54 (18) %, the “% Inhibition (at day)” value ([10]; IP 75 mg/kg Daily, day 18) was 53 (18) % and the “% Inhibition (at day)” value ([10]; IP 75 mg/kg Three times weekly, day 18) was 29 (18) %. The “% Inhibition (at day)” value ([10]; IP 75 mg/kg Twice weekly, day 19) was 26 (19) %, the “efficacy on established tumors” value ([10]; IP 75 mg/kg/day from Day 7, when measurable tumors were present) was “efficacious” and the “% Inhibition (at day)” value ([10]; IP 100 mg/kg Daily X 5 followed by Once weekly, day 15) was 42(15) %. For the same compound, the “% Inhibition (at day)” value ([10]; IP 100 mg/kg Daily, day 18) was 65 (18) %, the “% Inhibition (at day)” value ([10]; IP 100 mg/kg Three times weekly, day 18) was 40 (18) % and the “% Inhibition (at day)” value ([10]; IP 100 mg/kg Twice weekly, day 19) was 38 (19) %. The tumor growth inhibition ([10]; IP 100 mg/kg twice weekly or three times weekly, statistically significant) was “approximately 40%”, the “% Inhibition (at day)” value ([10]; IP 150 mg/kg Daily X 5 followed by once weekly, day 15) was 51 (15) % and the tumor growth inhibited ([10]; PO 200 mg/kg/day in a Labrasol-containing vehicle, Day 18 post-implantation, compared to vehicle-treated animals) was 82%. For the same compound, the mortality ([11]; ip, 100 mg/kg/day) was 12.5%, the mortality ([11]; po, 200 mg/kg/day) was 10% and the solubility ([12]; 2% polysorbate-80) was < 13 mg/mL. The solubility ([12]; 30% peg 300 in buffer, pH 8.2, organic solvent or mixture) was 32 mg/mL (≈ 103 mM) and the bioavailability [13] was “low bioavailability”.
